Test results: patent publication US8377955B2, “Branched 3- and 6-substituted quinolines as CGRP receptors antagonists” (Merck, Sharp & Dohme, Corp., priority 2008, dated 2013)
Read-outs that look alike come from different tables or passages of the source. No end group written: not given here.

Assays:
Human CGRP receptor = target: T1, Human CGRP receptor (Homo sapiens, UniProt O60894+Q16602); test: Human CGRP receptor binding (125I-CGRP displacement)
T1 construct: expressed in transfected cells; membranes
T1 sequence (Q16602 23-461): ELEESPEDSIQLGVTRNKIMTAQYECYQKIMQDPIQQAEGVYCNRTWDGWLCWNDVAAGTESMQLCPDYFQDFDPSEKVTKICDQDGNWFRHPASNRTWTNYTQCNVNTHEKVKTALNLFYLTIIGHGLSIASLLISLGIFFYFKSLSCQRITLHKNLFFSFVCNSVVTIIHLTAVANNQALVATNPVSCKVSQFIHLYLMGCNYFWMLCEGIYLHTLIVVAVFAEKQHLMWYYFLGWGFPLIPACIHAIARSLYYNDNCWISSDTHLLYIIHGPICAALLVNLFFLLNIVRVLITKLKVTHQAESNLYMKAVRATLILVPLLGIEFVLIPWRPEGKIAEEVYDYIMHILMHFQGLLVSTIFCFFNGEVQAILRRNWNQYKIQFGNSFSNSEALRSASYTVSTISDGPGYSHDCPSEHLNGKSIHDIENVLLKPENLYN
T1 sequence (O60894 27-148): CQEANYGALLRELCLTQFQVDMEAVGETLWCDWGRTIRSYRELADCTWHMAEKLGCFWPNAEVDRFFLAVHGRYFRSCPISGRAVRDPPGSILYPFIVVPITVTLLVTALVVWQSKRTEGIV
Procedure: NATIVE RECEPTOR BINDING ASSAY: The binding of ^125I-CGRP to receptors in SK-N-MC cell membranes was carried out essentially as described (Edvinsson et al. (2001) Eur. J. Pharmacol. 415, 39-44). Briefly, membranes (25 μg) were incubated in 1 mL of binding buffer [10 mM HEPES, pH 7.4, 5 mM MgCl2 and 0.2% bovine serum albumin (BSA)] containing 10 pM ^125I-CGRP and antagonist. After incubation at room temperature for 3 h, the assay was terminated by filtration through GFB glass fibre filter plates (PerkinElmer) that had been blocked with 0.5% polyethyleneimine for 3 h. The filters were washed three times with ice-cold assay buffer (10 mM HEPES, pH 7.4 and 5 mM MgCl2), then the plates were air dried. Scintillation fluid (50 μL) was added and the radioactivity was counted on a Topcount (Packard Instrument). Data analysis was carried out by using Prism and the Ki was determined by using the Cheng-Prusoff equation (Cheng & Prusoff (1973) Biochem. Pharmacol. 22, 3099-3108).
RECOMBINANT RECEPTOR: Human CL receptor (Genbank accession number L76380) was subcloned into the expression vector pIREShyg2 (BD Biosciences Clontech) as a 5′NheI and 3′ PmeI fragment. Human RAMP1 (Genbank accession number AJ001014) was subcloned into the expression vector pIRESpuro2 (BD Biosciences Clontech) as a 5′NheI and 3′NotI fragment. HEK 293 cells (human embryonic kidney cells; ATCC #CRL-1573) were cultured in DMEM with 4.5 g/L glucose, 1 mM sodium pyruvate and 2 mM glutamine supplemented with 10% fetal bovine serum […], 100 units/mL penicillin and 100 μg/mL streptomycin, and maintained at 37° C. and 95% humidity. Cells were subcultured by treatment with 0.25% trypsin with 0.1% EDTA in HBSS. Stable cell line generation was accomplished by co-transfecting 10 μg of DNA with 30 μg Lipofectamine 2000 (Invitrogen) in 75 cm^2 flasks. CL receptor and RAMP1 expression constructs were co-transfected in equal amounts. Twenty-four hours after transfection the cells were diluted and selective medium (growth medium+300 μg/mL hygromycin and 1 μg/mL puromycin) was added the following day. A clonal cell line was generated by single cell deposition utilizing a FACS Vantage SE (Becton Dickinson). Growth medium was adjusted to 150 μg/mL hygromycin and 0.5 μg/mL puromycin for cell propagation.
RECOMBINANT RECEPTOR BINDING ASSAY: Cells expressing recombinant human CL receptor/RAMP1 were washed with PBS and harvested in harvest buffer containing 50 mM HEPES, 1 mM EDTA and Complete protease inhibitors (Roche). The cell suspension was disrupted with a laboratory homogenizer and centrifuged at 48,000 g to isolate membranes. The pellets were resuspended in harvest buffer plus 250 mM sucrose and stored at −70° C. For binding assays, 20 μg of membranes were incubated in 1 ml binding buffer (10 mM HEPES, pH 7.4, 5 mM MgCl2, and 0.2% BSA) for 3 hours at room temperature containing 10 pM ^125I-hCGRP (GE Healthcare) and antagonist. The assay was terminated by filtration through 96-well GFB glass fiber filter plates (PerkinElmer) that had been blocked with 0.05% polyethyleneimine. […]
[formula] Where Y is observed CPM bound, Ymax is total bound counts, Ymin is non specific bound counts, (Ymax−Ymin) is specific bound counts, % Imax is the maximum percent inhibition, % I min is the minimum percent inhibition, radiolabel is the probe, and the Kd is the apparent dissociation constant for the radioligand for the receptor as determined by Hot saturation experiments.

[1] = system: acute attacks of migraine; settings: clinical trials (Olesen et al. 2004); cited from earlier work
[2] = system: headache induced by CGRP infusion; settings: control group (Petersen et al. 2005); cited from earlier work
facial blood flow [3] = settings: marmoset, electrical stimulation of the trigeminal ganglion (Dodds et al. 2000); cited from earlier work
middle meningeal artery = settings: rats, electrical stimulation of the dura mater, prior administration (Williamson et al. 1997); cited from earlier work
facial blood flow [4] = settings: rat, trigeminal ganglion stimulation (Escott et al. 1995); cited from earlier work
[5] = table of Examples 32-37, read-out: Ki
[6] = read-out: Human CGRP receptor binding Ki

**Q.** Which Ki (Human CGRP receptor; [5]) does the source give for `CC(C)(C)OC(=O)[C@@H](NC(=O)c1cnc2cc3c(cc2c1)C[C@@]1(C3)C(=O)Nc2ncccc21)c1ccccc1` [Example 34] here?
**A.** 140 nM

**Q.** For `NCCCC[C@H](NC(=O)[C@@H](Cc1cc(Br)c(O)c(Br)c1)NC(=O)N1CCC(N2Cc3ccccc3NC2=O)CC1)C(=O)N1CCN(c2ccncc2)CC1` [BIBN4096BS], which “efficacy in treating acute attacks of migraine” value [1] is on record?
**A.** effective in treating acute attacks of migraine

**Q.** And the “prevention of headache induced by CGRP infusion” value [2]?
**A.** able to prevent headache induced by CGRP infusion

**Q.** What about the “effect on increase in facial blood flow” value (facial blood flow [3]) of the same compound?
**A.** blocked

**Q.** Which Ki (Human CGRP receptor; [5]) does the source give for `CC(C)(C)OC(=O)[C@H](NC(=O)c1cnc2cc3c(cc2c1)C[C@@]1(C3)C(=O)Nc2ncccc21)c1ccccc1` [Example 33] here?
**A.** 120 nM

**Q.** With `CC(c1cc(F)cc(F)c1)N(Cc1cnc2cc3c(cc2c1)C[C@@]1(C3)C(=O)Nc2ncccc21)C(=O)C1CCOCC1` (stereo in doubt) [Example 1, N-[(1R)-1-(3,5-Difluorophenyl)ethyl]-N-{[(7S)-2′-oxo-1′,2′,6,8-tetrahydrospiro-[cyclopenta[g]quinoline-7,3′-pyrrolo[2,3-b]pyridin]-3-yl]methyl}tetrahydro-2H-pyran-4-carboxamide] as the compound, how does the Ki (Human CGRP receptor; [6]) read?
**A.** 0.05 nM

**Q.** For “CGRP (8-37): a peptide CGRP antagonist; fragment of CGRP that lacks seven N-terminal amino acid residues (VTHRLAGLLSRSGGVVKNNFVPTNVGSKAF; ends and bridges not checked; UniProt P06881 90-119, looked up, fragment)”, which “effect on increase in diameter of the middle meningeal artery” value (middle meningeal artery) is on record?
**A.** blocked

**Q.** And the “effect on increased facial blood flow” value (facial blood flow [4])?
**A.** inhibited

**Q.** Which Ki (Human CGRP receptor; [5]) does the source give for `CC(C)(C)OC(=O)CC(NC(=O)c1cnc2cc3c(cc2c1)C[C@@]1(C3)C(=O)Nc2ncccc21)c1ccccc1` (stereo partly shown) [Example 36] here?
**A.** 76 nM

**Q.** Which Ki (Human CGRP receptor; [6]) does the source give for `CCOC(=O)CN(Cc1ccccc1)C(=O)c1cnc2cc3c(cc2c1)C[C@@]1(C3)C(=O)Nc2ncccc21` [Example 2, Ethyl(benzyl{[(7S)-2′-oxo-1′,2′,6,8-tetrahydrospiro[cyclopenta[g]quinoline-7,3′-pyrrolo[2,3-b]pyridin]-3-yl]carbonyl}amino)acetate] here?
**A.** 60 nM
